# From the supplement of paper PMC8967900
# How the values were obtained:
# Assay in all cases: selective drug sensitivity score (sDSS, relative to normal bone marrow) (sDSS (score)); higher = more potent and effective on the cell line relative to normal bone marrow cells
# Settings in all cases: 72 h
# ALL-PO = test system: ALL-PO
# COG-LL-317 = test system: COG-LL-317
# COG-LL-319h = test system: COG-LL-319h
# COG-LL-332h = test system: COG-LL-332h
# COG-LL-402h = test system: COG-LL-402h
# HAL-01 = test system: HAL-01
# KASUMI-2 = test system: KASUMI-2
# KASUMI-9 = test system: KASUMI-9
# MHH-CALL-4 = test system: MHH-CALL-4
# MOLT-14 = test system: MOLT-14
# MOLT-4 = test system: MOLT-4
# NALM-16 = test system: NALM-16
# NALM-6 = test system: NALM-6
# P12-ICHIKAWA = test system: P12-ICHIKAWA
# PEER = test system: PEER
# PF-382 = test system: PF-382
# REH = test system: REH
# SUP-B15 = test system: SUP-B15
# TANOUE = test system: TANOUE
# TMD5 = test system: TMD5
# 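Also: ALL cell lines in 384-well plates, five doses spanning 10,000-fold, each plate scaled between vehicle and 100 µmol/L benzalkonium chloride controls, sDSS an adapted area-under-curve metric.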
SMILES,selective drug sensitivity score (ALL-PO),selective drug sensitivity score (COG-LL-317),selective drug sensitivity score (COG-LL-319h),selective drug sensitivity score (COG-LL-332h),selective drug sensitivity score (COG-LL-402h),selective drug sensitivity score (HAL-01),selective drug sensitivity score (KASUMI-2),selective drug sensitivity score (KASUMI-9),selective drug sensitivity score (MHH-CALL-4),selective drug sensitivity score (MOLT-14),selective drug sensitivity score (MOLT-4),selective drug sensitivity score (NALM-16),selective drug sensitivity score (NALM-6),selective drug sensitivity score (P12-ICHIKAWA),selective drug sensitivity score (PEER),selective drug sensitivity score (PF-382),selective drug sensitivity score (REH),selective drug sensitivity score (SUP-B15),selective drug sensitivity score (TANOUE),selective drug sensitivity score (TMD5)
Cc1ccc(C(=O)Nc2cccc(C(F)(F)F)c2)cc1Nc1nc(-c2cccnc2)nc2c1cnn2C [NVP-BHG712] (top concentration 10000 nM),2.48,1.48,3.68,5.98,-2.32,2.98,2.38,5.18,1.18,2.28,3.08,-2.32,-2.32,3.08,8.18,3.38,6.18,7.98,-2.32,7.28
Cn1c(Nc2ccc(C(F)(F)F)cc2)nc2cc(Oc3ccnc(-c4ncc(C(F)(F)F)[nH]4)c3)ccc21 [NVP-RAF265] (top concentration 1000 nM),6.68,7.28,5.08,3.28,5.98,5.68,-0.22,4.48,7.48,6.38,3.48,6.18,-0.22,2.58,9.78,1.48,2.18,7.78,0.68,6.28
CC1(C)CC[C@]2(NC(=O)C(C)(F)F)CC[C@]3(C)[C@H](C(=O)C=C4[C@@]5(C)C=C(C#N)C(=O)C(C)(C)[C@@H]5CC[C@]43C)[C@@H]2C1 [Omaveloxolone] (top concentration 10000 nM),3.08,4.88,10.5,3.48,3.38,3.58,6.38,1.88,1.28,1.58,2.18,4.58,2.58,1.88,4.38,1.08,2.58,8.38,-0.52,1.48
CC(C)c1cc(C(=O)N2Cc3ccc(CN4CCN(C)CC4)cc3C2)c(O)cc1O [Onalespib] (top concentration 2500 nM),1.62,11.5,7.92,7.62,7.22,1.82,7.72,-2.18,-0.48,6.02,5.92,1.82,5.52,2.22,0.52,5.62,-0.08,3.92,-6.48,-3.28
COC[C@H](NC(=O)c1cnc(C)s1)C(=O)N[C@@H](COC)C(=O)N[C@@H](Cc1ccccc1)C(=O)[C@@]1(C)CO1 [Oprozomib] (top concentration 2500 nM),0.8,7.9,3.5,10.6,2.2,-0.8,-1.1,3.2,1.4,2.8,12.6,1.9,-0.4,2.1,12.5,11.3,-0.4,14,-8.7,-1.6
COc1ccccc1S(=O)(=O)Nc1ccc2c(c1)CN(C)C(=O)N2 [PFI-1] (top concentration 30000 nM),2.7,2.5,16.2,-0.5,3.1,0.3,2.4,6,2.7,4.4,-0.9,-1,1.7,0.8,2.4,1.8,-0.6,8.5,-3.2,-4.5
NS(=O)(=O)OC[C@@H]1C[C@@H](n2ccc3c(N[C@H]4CCc5ccccc54)ncnc32)C[C@@H]1O [Pevonedistat] (top concentration 10000 nM),12.7,15.7,12.2,20.2,8.5,-3.5,6.3,6.2,11.5,13.2,14,4.1,12.1,16.7,19.7,13.2,10.3,15.2,-3.1,6.7
CCCCc1nc2cc(/C=C/C(=O)NO)ccc2n1CCN(CC)CC [Pracinostat] (top concentration 10000 nM),5.58,3.88,10.1,0.58,13,1.88,12.5,8.18,6.28,6.18,3.48,0.98,2.78,5.08,3.98,3.38,0.38,5.98,-7.72,5.78
COc1cccc(OCCCN)c1-c1cc(Nc2cnc(C#N)cn2)n[nH]1 [Prexasertib] (top concentration 10000 nM),14.5,20.2,19.4,20.7,14.8,19,16.2,20.4,11.4,18.4,20.4,13.8,18.4,19,17.9,16.9,17,20.9,-0.86,8.94
